Results on five compounds are retold here after EP1222194B1, “7-ACYLAMINO-3-HETEROARYLTHIO-3-CEPHEM CARBOXYLIC ACID ANTIBIOTICS AND PRODRUGS THEREOF” (priority 1999, dated 2001).

In brackets after ≈: the same amount, converted by molar mass. A value given as a limit tells only on which side of the number the result lay.

In test [1] the test system is S. aureus ATCC 33593 (Meth^R). Briefly: Broth microdilution MIC (NCCLS). To be noted: Staphylococcus aureus, ATCC33593, Mueller-Hinton Broth, 24 h at 35 °C. Type of test: cell-based. Put shortly: (§1)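 NCCLS broth microdilution. Mueller-Hinton broth, final inoculum 5 x 10^5 CFU/mL, 24 h at 35 °C incubation. MIC is defined as the lowest concentration preventing visible or A650 growth.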
(In general: Broth dilution looks for growth in wells or tubes with falling amounts of substance.)

In the next test the test system is E. faecalis ATCC 29212. Briefly: Broth microdilution MIC (NCCLS). In kind it is cell-based. To be noted: Enterococcus faecalis, ATCC29212, Mueller-Hinton Broth, 24 h at 35 °C. Put shortly: as §1
Another test deals with E. faecium A491 (Amp^R). The test is described as follows: Broth microdilution MIC (NCCLS). The note with it: Enterococcus faecium, Mueller-Hinton Broth, 24 h at 35 °C. In kind it is cell-based. The essentials: as §1
For test [2], the system named is S. haemolyticus 05 (Meth^R). Briefly: Broth microdilution MIC (NCCLS). Type of test: cell-based. To be noted: Staphylococcus haemolyticus, Mueller-Hinton Broth, 24 h at 35 °C. Put shortly: as §1
Test [3] deals with S. aureus PC1 (Meth^S)(lac^+). Briefly: Broth microdilution MIC (NCCLS). To be noted: Staphylococcus aureus; S. aureus PC1 (Meth^S)(lac^+); Mueller-Hinton Broth, 24 h at 35 °C; read-out: MIC. In kind it is cell-based. The essentials:
as §1

Test [4] concerns S. aureus Col8A(Meth^S)(lac^-). Briefly: Broth microdilution MIC (NCCLS). The note with it: Staphylococcus aureus, Mueller-Hinton Broth, 24 h at 35 °C. Type of test: cell-based. The essentials: as §1
In test [5] the test system is S. aureus ATCC 13709 (Smith diffuse). The test is described as follows: Murine model for lethal bacteremic peritonitis (septicemia). In kind it is in vivo, mice. The note with it: Dose 5 mg/kg, subcutaneously at 0 and 2 hrs post-challenge. The protocol:
10 mice/group were injected intraperitoneally with 2.98x10^7 cfu S. aureus ATCC 13709 (Smith diffuse) and treated at 0 and 2hrs post-challenge with serial two-fold doses of new cephalosporin antibiotic, imipenem and vancomycin subcutaneously in order to determine the ED50. Male Swiss-Webster mice weighing originally 24.2 - 26.1 g were obtained from Charles Rivers Labs, Hollister, CA. Mice were housed 10 per cage and given free access to water and mouse chow.
Staphylococcus aureus ATCC 13709 (Smith diffuse) was grown overnight at 37 °C in Brain-heart Infusion broth (BHIB). The following morning, it was subcultured to fresh BHIB and incubated for 4-5h at 37 °C. The log-phase growth cells were washed once with physiological saline and adjusted to the desired concentration by correlation of absorbency at OD 600 nm with predetermined plate counts (NCCLS, 1994). The cell suspension was mixed with an equal volume of sterile 14% hog-gastric mucin (2). Inoculum was kept in an ice bath until used (<1h).
Mice were challenged via an injection of 0.5 mL bacterial suspension intraperitoneally. The bacterial challenge was 2.98 x 10^7 cfu/mouse.
Imipenem (Primaxin IV; Lot 7294A), vancomycin (Vancocin; Lot 8MU60W), and new cephalosporin antibiotic were prepared by serial two-fold dilutions to concentrations of 0.078 - 0.005 mg/mL, 1.2 - 0.075 mg/mL, 0.3 - 0.02 mg/mL, 0.3 - 0.02 mg/mL and 0.3 - 0.02 mg/mL respectively in sterile water (1). All antibiotics were administered subcutaneously in 0.1 mL volumes at 0 and 2 hours post-challenge. Concentrations of all compounds are based on the weight of the bioactive ingredients.
The 50% effective dose (ED50) was calculated by the probit method (3) utilizing a program entitled Probit (Nycomed-Salutar).

For the compound `NCCSCc1ncccc1SC1=C(C(=O)O)N2C(=O)[C@@H](NC(=O)/C(=N\O)c3nc(N)sc3Cl)[C@H]2SC1` [Cmpd 1, (7R)-7-[(Z)-2-(2-amino-5-chlorothiazol-4-yl)-2-(hydroxyimino)acetamido]-3-[2-(2-aminoethylthiomethyl)pyrid-3-ylthio]-3-cephem-4-carboxylic acid], the MIC – broadly, the smallest concentration in the dilution series that meets the test's criterion for growth inhibition – in test [1] amounted to 1 µg/mL (≈ 1.66 µM); in the test on E. faecalis ATCC 29212, 0.06 µg/mL (≈ 0.0996 µM); in the test with E. faecium A491 (Amp^R), 8 µg/mL (≈ 13.3 µM); in test [2] it was 1 µg/mL (≈ 1.66 µM).

With `NCCSCc1ncccc1SC1=C(C(=O)O)N2C(=O)[C@@H](NC(=O)/C(=N\O)c3nsc(N)n3)[C@H]2SC1` [Cmpd 2, (7R)-7-[(Z)-2-(5-amino-1,2,4-thiadiazol-3-yl)-2-(hydroxyimino)acetamido]-3-[2-(2-aminoethylthiomethyl)pyrid-3-ylthio]-3-cephem-4-carboxylic acid], the minimal inhibitory concentration (MIC) in test [1] was 1 µg/mL (≈ 1.76 µM); with E. faecalis ATCC 29212, 1 µg/mL (≈ 1.76 µM); with E. faecium A491 (Amp^R), greater than 32 µg/mL; in test [2] it was 2 µg/mL (≈ 3.52 µM).

With `N=C(N)NCCSCc1ncccc1SC1=C(C(=O)O)N2C(=O)[C@@H](NC(=O)/C(=N\O)c3nsc(N)n3)[C@H]2SC1` [Cmpd 2-R, (7R)-7-[(Z)-2-(5-amino-1,2,4-thiadiazol-3-yl)-2-(hydroxyimino)acetamido]-3-[2-(2-guanidinoethylthiomethyl)pyrid-3-ylthio]-3-cephem-4-carboxylic acid], the minimal inhibitory concentration (MIC) in test [3] was 0.13 µg/mL (≈ 0.213 µM); in test [1], 1 µg/mL (≈ 1.64 µM); in the test with E. faecalis ATCC 29212, 1 µg/mL (≈ 1.64 µM); against E. faecium A491 (Amp^R) it was 32 µg/mL (≈ 52.4 µM); in test [2], 2 µg/mL (≈ 3.27 µM); in test [4], 0.25 µg/mL (≈ 0.409 µM).

`N=C(N)NCCSCc1ncccc1SC1=C(C(=O)O)N2C(=O)[C@@H](NC(=O)/C(=N\O)c3nc(N)sc3Cl)[C@H]2SC1` [Cmpd 2-S, (7R)-7-[(Z)-2-(2-amino-5-chlorothiazol-4-yl)-2-(hydroxyimino)acetamido]-3-[2-(2-guanidinoethylthiomethyl)pyrid-3-ylthio]-3-cephem-4-carboxylic acid]: the MIC is 0.13 µg/mL (≈ 0.202 µM) in test [3]; 0.5 µg/mL (≈ 0.776 µM) in test [1]; 0.06 µg/mL (≈ 0.0931 µM) with E. faecalis ATCC 29212; 4 µg/mL (≈ 6.21 µM) with E. faecium A491 (Amp^R); 1 µg/mL (≈ 1.55 µM) in test [2]; 0.125 µg/mL (≈ 0.194 µM) in test [4].

Turning to `NCCSCc1ccncc1SC1=C(C(=O)O)N2C(=O)[C@@H](NC(=O)/C(=N\O)c3nc(N)sc3Cl)[C@H]2SC1` [Cmpd 3, (7R)-7-[(Z)-2-(2-amino-5-chlorothiazol-4-yl)-2-(hydroxyimino)acetamido]-3-[4-(2-aminoethylthiomethyl)pyrid-3-ylthio]-3-cephem-4-carboxylic acid], the “Efficacy in murine septicemia %survival” value in test [5] was 5/80%. Moreover, the MIC was 1 µg/mL (≈ 1.66 µM) in test [1], 0.13 µg/mL (≈ 0.216 µM) in the test on E. faecalis ATCC 29212, 32 µg/mL (≈ 53.1 µM) in the test with E. faecium A491 (Amp^R) and 2 µg/mL (≈ 3.32 µM) in test [2].
